In patent US20260327224A1, “SUBSTITUTED PYRIDOTRIAZOLE COMPOUND, AND PREPARATION METHOD THEREFOR AND USE THEREOF” (ORIGIANT PHARMACEUTICAL CO., LTD., priority 2023, published 2026) one finds EC50 data, which are given here for 43 compounds.

Some results are limits rather than exact numbers.

The EC50 is the midpoint of the concentration-response curve.

The test system of this experiment is HT-29 cells (colon cancer cells). The experiment is described as follows: In vitro assay for protection of HT-29 cells from necroptosis (TNFα/Smac mimetic/Z-VAD-FMK, CCK-8). The experiment is classed as cell-based. As to conditions: Homo sapiens, Protective Activity Against Necroptosis, TNFα/Smac mimetic/Z-VAD-FMK induced, 24 h. From the text:
Z′=1−3(SDmin+SDmax)/(AVEmax−AVEmin) • wherein: • Min is the positive control Data, and Max is the negative control DMSO Data. • SD is the standard deviation, and AVE is the average. In Vitro Assay for Protection of HT-29 Cells from Necroptosis:
1) Experimental Materials
DMEM medium was purchased from Gibco; penicillin-streptomycin was purchased from Hyclone; TNFα was purchased from Peprotech; Smac mimetic and Z-VAD-FMK were purchased from Selleck; and CCK-8 was purchased from Medchem Express.
HT-29 cells (colon cancer cells) were cultured in DMEM+10% FBS+penicillin/streptomycin. For the experiment, HT-29 cells in the logarithmic phase were collected and seeded into 96-well plates at a specific density (typically 8×10^3 cells/well for adherent cells). The cells were cultured overnight in an incubator at 37° C. with 5% CO2. On the following day, the test compound was diluted with culture medium to the corresponding concentrations and added into the 96-well plate, with 3 replicate wells for each sample. A solvent control group and a blank control group containing only culture medium were set simultaneously. The spiked cells were induced with a combination of TNFα/Smac mimetic/Z-VAD-FMK for 24 h. Subsequently, 10 μL of CCK8 solution was added to each well, and the cells were incubated in an incubator for 1-3 h. Absorbance was measured at […] using a microplate reader, and the cell necrosis protection rate of the drug was calculated using the following formula:
Cell necrosis protection rate=[(X−C0)/(C−C0)]×100% • where C, C0, and X represent the average absorbance values of the solvent control group, the blank control group, and the drug treatment group, respectively. Finally, a cell viability curve was fitted using Graphpad Prism 5.0 software, and the EC50 value of the test compound for inhibiting necroptosis was calculated.
Consider `C[C@H](NC(=O)c1cn(C)c2ccc(-c3ccn4nc(NC(=O)CN5CCOC[C@@H]5C)nc4c3)cc12)c1ccc(Cl)cc1` [Compound 82], for which the EC50 was less than 1 nM. The result for `C[C@H](NC(=O)c1cn(C)c2ccc(-c3ccn4nc(NC(=O)CN5CCOCC5)nc4c3)cc12)c1ccc(Cl)cc1` [Compound 83] reads less than 1 nM.

Regarding `CC1CN(CC(=O)Nc2nc3cc(-c4ccc5c(c4)c(C(=O)N[C@@H](C)c4ccc(Cl)cc4)cn5C)ccn3n2)CCO1` (stereo partly shown) [Compound 84], the concentration giving a half-maximal response (EC50) was less than 1 nM. The result for `C[C@@H]1CN(CC(=O)Nc2nc3cc(-c4ccc5c(c4)c(C(=O)N[C@@H](C)c4ccc(Cl)cc4)cn5C)ccn3n2)C[C@H](C)O1` [Compound 85] reads less than 1 nM; that for `C[C@H](NC(=O)c1cn(C)c2ccc(-c3ccn4nc(NC(=O)CN5CCC(F)(F)CC5)nc4c3)cc12)c1ccc(Cl)cc1` [Compound 86], less than 1 nM; that for `C[C@H](NC(=O)c1cn(C)c2ccc(-c3ccn4nc(NC(=O)CN5CCSCC5)nc4c3)cc12)c1ccc(Cl)cc1` [Compound 87], less than 1 nM. For the compound `C[C@H](NC(=O)c1cn(C)c2ccc(-c3ccn4nc(NC(=O)CN5CCOCC5)nc4c3)cc12)c1ccco1` [Compound 88], the EC50 lay within 1 to 10 nM.

Take `C[C@H](NC(=O)c1cn(C)c2ccc(-c3ccn4nc(NC(=O)CN5CCOCC5)nc4c3)cc12)C(C)(C)C` [Compound 90]: the half-maximal effective concentration (EC50) lay within 1000 to 10000 nM. For `C[C@H](NC(=O)c1cn(C)c2ccc(-c3ccn4nc(NC(=O)c5cnn(C)c5)nc4c3)cc12)C(C)(C)C` [Compound 91] the value was 1000 to 10000 nM. Regarding `C[C@H](NC(=O)c1cn(C)c2ccc(-c3ccn4nc(NC(=O)C5CC5F)nc4c3)cc12)C(C)(C)C` (stereo partly shown) [Compound 92], the EC50 is 100 to 1000 nM.

In the case of `C[C@H](NC(=O)c1cn(C)c2ccc(-c3ccn4nc(NC(=O)C5CC5)nc4c3)cc12)C(C)(C)C` [Compound 93], the half-maximal effective concentration (EC50) was in the range of 100 to 1000 nM.

As to `Cn1cc(C(=O)N[C@@H](CF)c2ccc(F)cc2)c2cc(-c3ccn4nc(NC(=O)CCl)nc4c3)ccc21` [Compound 94], the half-maximal effective concentration (EC50) is less than 1 nM.

As for `CN1CCN(C(=O)Nc2nc3cc(-c4ccc5c(c4)c(C(=O)N[C@@H](CF)c4ccc(F)cc4)cn5C)ccn3n2)CC1` [Compound 95], the EC50 was less than 1 nM. For `Cn1cc(C(=O)N[C@@H](CF)c2ccc(F)cc2)c2cc(-c3ccn4nc(NC(=O)CN5CCCCC5)nc4c3)ccc21` [Compound 96] the value was less than 1 nM; for `COCC(=O)Nc1nc2cc(-c3ccc4c(c3)c(C(=O)N[C@@H](CF)c3ccc(F)cc3)cn4C)ccn2n1` [Compound 97], less than 1 nM. For `CO[C@@H](C)C(=O)Nc1nc2cc(-c3ccc4c(c3)c(C(=O)N[C@@H](CF)c3ccc(F)cc3)cn4C)ccn2n1` [Compound 98] the value was less than 1 nM; for `CC(C)Nc1nc2cc(-c3ccc4c(c3)c(C(=O)N[C@@H](CF)c3ccc(F)cc3)cn4C)ccn2n1` [Compound 99], less than 1 nM.

For `CN1CC[C@@H](C(=O)Nc2nc3cc(-c4ccc5c(c4)c(C(=O)N[C@@H](CF)c4ccc(F)cc4)cn5C)ccn3n2)C1` [Compound 100], the EC50 is less than 1 nM.

In the case of `CN(C)CC(=O)Nc1nc2cc(-c3ccc4c(c3)c(C(=O)N[C@@H](CF)c3ccc(F)cc3)cn4C)ccn2n1` [Compound 101], the half-maximal effective concentration (EC50) is less than 1 nM. For `Cn1cc(C(=O)N[C@@H](CF)c2ccc(F)cc2)c2cc(-c3ccn4nc(NC(=O)C#N)nc4c3)ccc21` [Compound 102] the value was less than 1 nM; for `Cn1cc(C(=O)N[C@@H](CF)c2ccc(F)cc2)c2cc(-c3ccn4nc(NC(=O)N5CCOCC5)nc4c3)ccc21` [Compound 103], less than 1 nM. For the compound `Cn1cc(C(=O)N[C@@H](CF)c2ccc(F)cc2)c2cc(-c3ccn4nc(NC(=O)[C@H]5CCCO5)nc4c3)ccc21` [Compound 104], the EC50 was in the range of 1000 to 10000 nM. The result for `Cn1cc(C(=O)N[C@@H](CF)c2ccc(F)cc2)c2cc(-c3ccn4nc(NC(=O)C5(C)CCC5)nc4c3)ccc21` [Compound 105] reads 10 to 100 nM; that for `C[C@H](NC(=O)c1cn(C)c2ccc(-c3ccn4nc(NC(=O)C5CCOC5)nc4c3)cc12)c1ccc(F)cc1` (stereo partly shown) [Compound 106], less than 1 nM; that for `C[C@H](NC(=O)c1cn(C)c2ccc(-c3ccn4nc(NC5CCOC5)nc4c3)cc12)c1ccc(F)cc1` (stereo partly shown) [Compound 107], less than 1 nM.

As for `Cn1cc(C(=O)N[C@@H](CF)c2ccc(F)cc2)c2cc(-c3ccn4nc(NCC5CC5)nc4c3)ccc21` [Compound 108], the EC50 is less than 1 nM.

For `Cn1cc(C(=O)N[C@@H](CF)c2ccc(F)cc2)c2cc(-c3ccn4nc(NC(=O)C5CCOC5)nc4c3)ccc21` (stereo partly shown) [Compound 109], the EC50 is 1 to 10 nM. For `Cn1cc(C(=O)N[C@@H](CF)c2ccc(F)cc2)c2cc(-c3ccn4nc(NC(=O)C5CC5(F)F)nc4c3)ccc21` (stereo partly shown) [Compound 110] the value was less than 1 nM; for `Cn1cc(C(=O)Nc2nc3cc(-c4ccc5c(c4)c(C(=O)N[C@@H](CF)c4ccc(F)cc4)cn5C)ccn3n2)cn1` [Compound 111], 1 to 10 nM. For `COC(C)C(=O)Nc1nc2cc(-c3ccc4c(c3)c(C(=O)N[C@@H](CF)c3ccc(F)cc3)cn4C)ccn2n1` (stereo partly shown) [Compound 112] the value was less than 1 nM. In the case of `Cn1cc(C(=O)N[C@@H](CF)c2ccc(F)cc2)c2cc(-c3ccn4nc(NC(=O)C5CC5F)nc4c3)ccc21` (stereo partly shown) [Compound 113], the half-maximal effective concentration (EC50) was 1 to 10 nM. For `Cn1cc(C(=O)N[C@@H](CF)c2ccc(F)cc2)c2cc(-c3ccn4nc(NC(=O)C5CC5)nc4c3)ccc21` [Compound 114] the value was less than 1 nM; for `C[C@H](NC(=O)c1cn(C)c2ccc(-c3ccn4nc(NC(=O)c5ccnc(F)c5)nc4c3)cc12)c1ccc(F)cc1` [Compound 115], less than 1 nM. With `C[C@H](NC(=O)c1cn(C)c2ccc(-c3ccn4nc(NC(=O)N5CCOCC5)nc4c3)cc12)c1ccc(F)cc1` [Compound 116], the EC50 was less than 1 nM.

For the compound `C[C@H](NC(=O)c1cn(C)c2ccc(-c3ccn4nc(NC(=O)[C@H]5CCCO5)nc4c3)cc12)c1ccc(F)cc1` [Compound 117], the EC50 is less than 1 nM. On to `C[C@H](NC(=O)c1cn(C)c2ccc(-c3ccn4nc(NC(=O)N5CCOCC5)nc4c3)cc12)c1cccc(F)c1` [Compound 118], for which the concentration for a half-maximal effect (EC50) was less than 1 nM.

With `C[C@H](NC(=O)c1cn(C)c2ccc(-c3ccn4nc(NC(=O)[C@H]5CCCO5)nc4c3)cc12)c1cccc(F)c1` [Compound 119], the half-maximal effective concentration (EC50) was less than 1 nM. For `C[C@H](NC(=O)c1cn(C)c2ccc(-c3ccn4nc(NC(=O)c5cnn(C)c5)nc4c3)cc12)c1cccc(F)c1` [Compound 120] the value was less than 1 nM; for `Cn1cc(C(=O)N[C@H]2CCc3ccc(F)cc32)c2cc(-c3ccn4nc(NC(=O)[C@H]5CCCO5)nc4c3)ccc21` [Compound 121], less than 1 nM. For `Cn1cc(C(=O)Nc2nc3cc(-c4ccc5c(c4)c(C(=O)N[C@H]4CCc6ccc(F)cc64)cn5C)ccn3n2)cn1` [Compound 122] the value was 100 to 1000 nM. As to `CN(C)CC(=O)Nc1nc2cc(-c3ccc4c(c3)c(C(=O)N[C@H]3CCc5ccc(F)cc53)cn4C)ccn2n1` [Compound 123], the EC50 is 1 to 10 nM. The result for `CC(=O)Nc1nc2cc(-c3ccc4c(c3)c(C(=O)N[C@@H]3C[C@H]3c3ccc(F)c(F)c3)cn4C)ccn2n1` [Compound 125] reads 1000 to 10000 nM; that for `Cn1cc(C(=O)N[C@H]2CCc3cc(C#N)ccc32)c2cc(-c3ccn4nc(NC(=O)C5CC5)nc4c3)ccc21` [Compound 130], 1 to 10 nM.
